Data reported in patent US4430435A (priority 1980, dated 1984).
Several values for one entry are separate records, joined by “and”; a condition that tells them apart may be missing. Equal entries are not always repeated.

Tests used:
[1] = Radioreceptor assay for tricyclic antidepressant drugs: binding of 3H-desipramine to talc in the presence of serum or buffer, with blocking agent
[2] = system: β-Adrenergic Receptors; format: binding, rat
[3] = target: T1, calf caudate (Bos taurus, UniProt P20288); format: binding
T1 construct: homogenised calf caudate (8 mg/ml); from tissue; host or cells: calf caudate, homogenised
T1 sequence (P20288 whole entry): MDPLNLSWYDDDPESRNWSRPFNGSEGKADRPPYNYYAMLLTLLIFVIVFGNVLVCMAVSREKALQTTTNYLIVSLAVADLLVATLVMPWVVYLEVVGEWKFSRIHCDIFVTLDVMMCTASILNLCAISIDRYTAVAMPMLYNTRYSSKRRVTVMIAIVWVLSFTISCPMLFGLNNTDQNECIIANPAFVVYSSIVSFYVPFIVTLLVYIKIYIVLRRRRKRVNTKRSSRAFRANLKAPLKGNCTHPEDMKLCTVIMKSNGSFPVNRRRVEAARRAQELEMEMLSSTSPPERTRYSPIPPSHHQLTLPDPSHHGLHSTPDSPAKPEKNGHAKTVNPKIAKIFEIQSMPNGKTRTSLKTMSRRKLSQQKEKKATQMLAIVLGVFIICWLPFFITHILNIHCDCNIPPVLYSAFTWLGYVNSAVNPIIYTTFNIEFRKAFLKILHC

[4] = target: T1, calf caudate; experiment: Recovery of haloperidol added to drug-free serum, measured by the 3H-spiperone/calf caudate radioreceptor assay; format: binding; conditions: in the presence of TBEP

## CCOP(=O)(OCC)OCC [TEP, triethyl phosphate]
[1]; 50 μg/ml TEP
  3H-Desipramine Bound (CPM) in Buffer: 12093 CPM
  3H-Desipramine Bound (CPM) in Serum: 7740 CPM
  % Change in Buffer: -2%
  % Change in Serum: +10%
[1]; 100 μg/ml TEP
  3H-Desipramine Bound (CPM) in Buffer: 11748 CPM
  3H-Desipramine Bound (CPM) in Serum: 8276 CPM
  % Change in Buffer: -5%
  % Change in Serum: +18%
[1]; 500 μg/ml TEP
  3H-Desipramine Bound (CPM) in Buffer: 13024 CPM
  3H-Desipramine Bound (CPM) in Serum: 9204 CPM
  % Change in Buffer: +6%
  % Change in Serum: +31%
[1]; 750 μg/ml TEP
  3H-Desipramine Bound (CPM) in Buffer: 11507 CPM
  3H-Desipramine Bound (CPM) in Serum: 9198 CPM
  % Change in Buffer: -6%
  % Change in Serum: +30%
[1]; 1000 μg/ml TEP
  3H-Desipramine Bound (CPM) in Buffer: 11925 CPM
  3H-Desipramine Bound (CPM) in Serum: 9745 CPM
  % Change in Buffer: -3%
  % Change in Serum: +39%
[1]; 1250 μg/ml TEP
  3H-Desipramine Bound (CPM) in Buffer: 12362 CPM
  3H-Desipramine Bound (CPM) in Serum: 10016 CPM
  % Change in Buffer: 0%
  % Change in Serum: +43%
[2]
  125I-HYP Bound (CPM) in Buffer: 8367 CPM and 7988 CPM and 7972 CPM and 7931 CPM and 7613 CPM
  125I-HYP Bound (CPM) in Serum: 3812 CPM and 4131 CPM and 6011 CPM and 5903 CPM and 5881 CPM
  % Change in Buffer: -1% and -5% and -6% and -10%
[3]
  % 3H-Spiperone Bound in Buffer: 37.9% and 37.5% and 37.1% and 36.6% and 36.8% and 35.0%
  % 3H-Spiperone Bound in Serum: 27.8% and 28.6% and 29.1% and 30.1% and 30.6% and 29.8%
  % Change in Buffer: 0% and -1% and -2% and -3% and -7%

## CCCCOCCOP(=O)(OCCOCCCC)OCCOCCCC [TBEP, tris(butoxyethyl) phosphate]
[2]
  125I-HYP Bound (CPM) in Buffer: 8513 CPM and 8226 CPM and 8729 CPM and 8510 CPM and 8630 CPM and 8412 CPM
[4]
  variability (CV) in the recovery of added haloperidol: reduced
[3]
  % 3H-Spiperone Bound in Buffer: 35.0% and 35.3% and 35.6% and 32.5% and 32.4% and 31.6% and 27.7%
  % 3H-Spiperone Bound in Serum: 23.0% and 26.2% and 27.8% and 29.1% and 27.2% and 26.1% and 24.3%
  % of 3H-Spiperone Bound, TBEP present: 31.9% and 32.2% and 31.5% and 33.8% and 33.5% and 32.8% and 31.8%
  % of 3H-Spiperone Bound, TBEP present, mean (X): 32.4%
  between sample variability (CV) in 3H-spiperone binding: reduced
